From patent US8293726B2, “Treatment of cancer and other diseases” (Vianova Labs, Inc., priority 2005, dated 2012)
Where “and” joins values, the source holds several entries; their conditions need not be identical. Equal entries are not always repeated.

Legend:
[1] = system: experimentally induced large B-cell lymphoma; experiment: Therapeutic efficacy in mice with experimentally induced large B-cell lymphoma (blood tests, LDH, body weight, autopsy); format: in vivo; set-up: Lymphocytes: unit not given here; conditions: for LDH: blood plasma; for Total protein: blood serum; for Lymphocytes: blood
Experimental: Investigations were carried out on immunocompromised laboratory mice with experimentally-induced large B-cell lymphoma using hematological, immunological, biochemical, anatomical, and cytological methods. Two groups of 15 mice were employed. In the first group, 24-ethyl-cholestane-3β,5α,6α-triol was administered orally daily at a dosage of 5 mg/kg. The second group served as the control. The following parameters of therapeutic efficacy were compared: dynamics of LDH activity in the blood plasma, content of total protein, and general clinical blood test results.
As is seen from Table 2, statistically important differences (P<0.05) between animals with lymphoma and healthy animals were marked by the amount of leukocytes, hemoglobin, by color indication, the absolute number of lymphocytes in blood, as well as the content of total protein in the blood serum and the LDH activity in blood plasma. These changes characterize the presence of disorders in the lymphoid component of blood formation, indicate the presence of intensive cytolysis in the process of carcinogenesis (due to increased LDH), and show the presence of processes suppressing biosynthesis of protein.
The total content of protein in the blood serum and the hemoglobin concentration are increased. At the same time, a decrease in LDH activity in the blood plasma and in the number of lymphocytes was observed (FIG. 5).

[2] = system: human tumor cell line: ductal carcinoma breast; experiment: Human tumor cell lines in immunocompromised mice (intraperitoneal, ascitis): breast; format: in vivo; conditions: Breast CA; treated mice (4, 2 and 0.8 mg/kg/day orally for 10 days)
Experimental: (§1) Immunocompromised mice were used for this experiment. Mice were inbred in a sterile environment and fed ad libitum. Four groups of 40 mice, weighing approximately 20 g each (range: 17-25 g), were used for each tumor type. The human tumor cell lines used were the following: large B-cell lymphoma; squamous-cell carcinoma of the lung; ductal carcinoma breast; and adenocarcinoma of the lung. A suspension of tumor cells was injected in the peritoneum of immunocompromised mice. Following this, mice were examined and weighed daily. After 6-8 days, we observed the development of abdominal carcinomatosis and […]. At day 18, we observed the development of an abundant […], which increased the weight of the mice by approximately 20 g. At that time, mice were divided into four groups of 10. […] Assessment of tumor cell concentration in the […] abdominal metastases were measured on day 18 and every 2 days thereafter. In all mice, prior to treatment, we observed an increase in LDH ESR (>100) and a decrease in the hematocrit. Control (untreated) mice all died between day 21 and day 25 in all tumor types. […] Complete response: Weight (and ascetic) loss and the disappearance of all abdominal metastatic nodules and tumor cells. Partial response: Weight (and ascitic) loss and at least 25% decrease of tumor cell in the […] least 25% decrease in measured abdominal metastatic nodules. […] Progressive disease: When we observed an increase in […] or tumor volume or death of the animal.

[3] = system: human tumor cell line: large B-cell lymphoma; experiment: Human tumor cell lines in immunocompromised mice (intraperitoneal, ascitis): lymphoma; format: in vivo; conditions: treated mice (4, 2 and 0.8 mg/kg/day orally for 10 days)
Experimental: as §1

[4] = system: human tumor cell line: squamous-cell carcinoma of the lung; experiment: Human tumor cell lines in immunocompromised mice (intraperitoneal, ascitis): squamous lung; format: in vivo; conditions: treated mice (4, 2 and 0.8 mg/kg/day orally for 10 days)
Experimental: as §1

[5] = system: human tumor cell line: adenocarcinoma of the lung; experiment: Human tumor cell lines in immunocompromised mice (intraperitoneal, ascitis): lung adenocarcinoma; format: in vivo; conditions: treated mice (4, 2 and 0.8 mg/kg/day orally for 10 days)
Experimental: as §1

[6] = system: metastatic renal cell carcinoma (stage IV); experiment: Patient case: metastatic renal cell carcinoma; format: in vivo, human; conditions: 80 mg/day
[7] = system: hormone resistant metastatic prostate cancer; experiment: Patient case: hormone resistant metastatic prostate cancer, PSA; format: in vivo, human
Excerpt: A patient presented with hormone resistant metastatic prostate cancer. They had previously been treated with three courses of chemotherapy (Navelbine+Taxotere, but their PSA was still increasing.

[8] = system: left squamous-cell carcinoma of the lung; experiment: Patient case: squamous-cell carcinoma of the lung; format: in vivo, human
Excerpt: A patient with presented with a left squamous-cell carcinoma of the lung. […] Seven months later the patient received radiotherapy to the left lung. […] The patient undergoes a left pneumonectomy and drug therapy is stopped, but the tumor recurs and the patient dies.

[9] = system: lung large-cell adenocarcinoma metastatic to liver; experiment: Patient case: lung large-cell adenocarcinoma metastatic to liver; format: in vivo, human; set-up: LDH: unit not given beside the values
Excerpt: A patient was diagnosed with a lung large-cell adenocarcinoma metastatic to liver. They received chemotherapy with no success. […] They also had frequent hemoptysis and elevated LDH, GGT, and bilirubin. The course of the patient's biologic parameters during treatment are depicted in Table 7.

[10] = system: experimentally induced large B-cell lymphoma; experiment: Therapeutic efficacy in mice with experimentally induced large B-cell lymphoma (blood tests, LDH, body weight, autopsy); format: in vivo; conditions: second treated group; M (arithmetic mean of 3 animals)
[11] = 5 mg/kg orally daily, course of treatment
[12] = first treated group, M (arithmetic mean of 3 animals)
[13] = first treated group, individual animals
[14] = second treated group, M (arithmetic mean of 3 animals)
[15] = second treated group, individual animals
[16] = third treated group, M (arithmetic mean of 4 animals)
[17] = third treated group, individual animals

For `CC[C@H](CC[C@@H](C)[C@H]1CC[C@H]2[C@@H]3C[C@H](O)[C@@]4(O)C[C@@H](O)CC[C@]4(C)[C@H]3CC[C@]12C)C(C)C` [24-ethyl-cholestane-3β,5α,6α-triol], which hemoglobin concentration [1, 11] is on record?
The hemoglobin concentration was “increased”.

What about the number of lymphocytes [1, 11] of the same compound?
The number of lymphocytes was “decrease”.

And the “total content of protein in the blood serum” value [1, 11]?
The value was “increased”.

And the “autopsy: liver, kidney and spleen tissues, treated animals with lymphoma vs healthy mice” value ([1]; 5 mg/kg orally daily, sixteen days)?
Its value is “no differences”.

What about the LDH [1, 12] of the same compound?
The LDH was 962.00 U/L.

And the LDH [1, 13]?
The LDH was 1056 U/L and 974 U/L and 856 U/L.

And the LDH [1, 14]?
Its LDH is 749.7 U/L.

And the LDH [1, 15]?
Its LDH is 698 U/L and 753 U/L and 798 U/L.

And the LDH [1, 16]?
The LDH was 673 U/L.

And the LDH [1, 17]?
The LDH was 759 U/L and 583 U/L and 697 U/L and 653 U/L.

What about the Total protein [1, 12] of the same compound?
The Total protein was 53.63 g/L.

What about the Total protein [1, 13] of the same compound?
Its Total protein is 51.5 g/L and 52.6 g/L and 56.8 g/L.

What about the Total protein [1, 14] of the same compound?
Its Total protein is 54.73 g/L.

And the Total protein [1, 15]?
Its Total protein is 52.9 g/L and 54.5 g/L and 56.8 g/L.

What about the Total protein [1, 16] of the same compound?
The Total protein was 57.625 g/L.

And the Total protein [1, 17]?
The Total protein was 56.5 g/l (2×) and 57.8 g/l and 59.7 g/l.

What about the Lymphocytes [1, 12] of the same compound?
Its Lymphocytes is 9.15.

And the Lymphocytes [1, 14]?
The Lymphocytes was 7.523.

What about the Lymphocytes [1, 16] of the same compound?
Its Lymphocytes is 7.464.

And the “LDH level in some animals” value ([1]; by the sixteenth day of treatment, some animals)?
The value was “reached the level of healthy animals”.

What about the Body, weight ([1]; day 16, treated vs untreated diseased mice) of the same compound?
Its Body, weight is “tendency to a gain in mass”.

What about the “decrease of LDH activity in blood plasma” value ([1]; diseased mice, 5 mg/kg orally daily, by the sixteenth day of treatment) of the same compound?
Its value is 42.3%.

And the “Body, weight” value [1, 12]?
The value was 18.04 g.

What about the neutrophiles/lymphocytes [1, 12] of the same compound?
Its neutrophiles/lymphocytes is 0.28.

What about the “Body, weight” value [1, 13] of the same compound?
Its value is 18.27 g and 17.86 g and 18.00 g.

And the “Body, weight” value [1, 14]?
Its value is 18.2 g.

And the “Body, weight” value [1, 15]?
Its value is 18.28 g and 18.36 g and 17.97 g.

And the “Body, weight” value [1, 16]?
Its value is 18.3775 g.

What about the neutrophiles/lymphocytes [1, 16] of the same compound?
Its neutrophiles/lymphocytes is 0.3255.

What about the “Body, weight” value [1, 17] of the same compound?
The value was 18.53 g and 18.12 g and 18.26 g and 18.60 g.

And the “Complete Remission” value [2]?
Its value is 60%.

And the “Partial Remission” value [2]?
The value was 20%.

And the “Progressive Disease” value [2]?
The value was 0%.

What about the “Stable Disease” value [2] of the same compound?
The value was 20%.

And the “Symptomatic Response” value [2]?
The value was 100%.

And the “Complete Remission” value [3]?
The value was 80%.

What about the “Partial Remission” value [3] of the same compound?
The value was 10%.

And the “Progressive Disease” value [3]?
The value was 0%.

And the “Stable Disease” value [3]?
The value was 10%.

And the “Symptomatic Response” value [3]?
Its value is 100%.

What about the “Complete Remission” value [4] of the same compound?
Its value is 50%.

And the “Partial Remission” value [4]?
Its value is 30%.

And the “Progressive Disease” value [4]?
The value was 0%.

And the “Stable Disease” value [4]?
The value was 20%.

And the “Symptomatic Response” value [4]?
Its value is 100%.

What about the “Complete Remission” value [5] of the same compound?
Its value is 40%.

And the “Partial Remission” value [5]?
The value was 20%.

And the “Progressive Disease” value [5]?
Its value is 10%.

And the “Stable Disease” value [5]?
The value was 30%.

What about the “Symptomatic Response” value [5] of the same compound?
The value was 100%.

What about the “chest CT scan, nodule in the right lower lobe” value ([6]; eight months later) of the same compound?
The value was 1 mm.

And the “chest CT scan” value ([6]; one year after commencing therapy)?
Its value is “normal”.

And the “chest CT scan, left lung metastasis” value ([6]; six weeks after start, 1 cm deposit in both lungs before)?
The value was “disappearance of the left lung metastasis”.

What about the PSA ([7]; Day 13, 70 mg/day, Day 0 prior to treatment 1958 (nl < 4)) of the same compound?
The PSA was 1590.

And the PSA ([7]; Day 15, 70 mg/day)?
The PSA was 1142.

And the PSA ([7]; Day 67, 70 mg/day)?
Its PSA is 802.

What about the PSA ([7]; Day 110, 70 mg/day) of the same compound?
Its PSA is 772.

What about the general condition ([8]; 50 mg/day, after commencing therapy) of the same compound?
Its general condition is “drastic and rapid improvement”.

And the fibroscopy ([8]; fourteen months after therapy commenced)?
The fibroscopy was “normal”.

What about the late outcome ([8]; nearly five years after commencement of therapy) of the same compound?
The late outcome was “recurrence of the left lung tumor”.

And the left lung opacity ([8]; nine months after commencing treatment, radiotherapy to the left lung at seven months)?
Its left lung opacity is “significant regression”.

And the LDH ([9]; Day 11, 70 mg/day, Day 0 prior to treatment 2560 (nl < 480))?
The LDH was 2264.

What about the LDH ([9]; Day 30, 70 mg/day) of the same compound?
Its LDH is 283.

And the LDH ([9]; Day 63, 70 mg/day)?
The LDH was 118.

What about the “Total Bilirubin” value ([9]; Day 63, 70 mg/day, Day 0 prior to treatment 1.9 (nl < 1)) of the same compound?
Its value is 0.42.

What about the LDH ([9]; Day 85, 70 mg/day) of the same compound?
Its LDH is 230.

And the “Total Bilirubin” value ([9]; Day 85, 70 mg/day)?
The value was 0.37.

What about the GGT ([9]; during treatment, 70 mg/day) of the same compound?
The GGT was 31.

And the “CT scans, masses in the lungs and liver” value ([9]; more than a year after commencement of therapy)?
The value was “decrease in number and size of previous masses”.

What about the neutrophiles/lymphocytes [10] of the same compound?
The neutrophiles/lymphocytes was 0.3024.
